How the values were obtained:
Colinus virginianus = conditions: for LD50: acute, oral, mortality
Canidae = conditions: chronic; duration: 1 years; oral; Dog Other; histopathology: nonneoplastic
Anas platyrhynchos = conditions: short-term; oral; feed; mortality

## Cc1nn(C)c(F)c1C(=O)Nc1ccccc1C(C)CC(C)C (stereo not given) [Penflufen]
Colinus virginianus; diet
  LD50: > 1700 mg/kg-day
Colinus virginianus
  LD50: > 4000 mg/kg-day
Colinus virginianus; reproduction developmental
  NOEL: 96 mg/kg-day
Rattus norvegicus; acute, oral, F, clinical signs
  NOAEL: 50 mg/kg-day
Rattus norvegicus; acute, oral, mortality
  LD50: > 2000 mg/kg-day
Rattus norvegicus; chronic, duration: 2 years, histopathology: nonneoplastic
  NOAEL: 4 mg/kg-day
Rattus norvegicus; reproduction developmental, F, reproduction
  NOAEL: 71 mg/kg-day
Rattus norvegicus; reproduction developmental, M, reproduction
  NOAEL: 58 mg/kg-day
Canidae
  NOAEL: 7.7 mg/kg-day
Anas platyrhynchos
  LD50: > 2210 mg/kg-day
